Results from publication PMC6078800 (Nature biotechnology, 2018).

Tests used:
[1] = molecular target: T1, Mp-KYNase (Mucilaginibacter paludis, UniProt H1YAV1); experiment: absorbance at […] nm, initial rates, Michaelis-Menten fit; assay type: biochemical; settings: DPBS pH 7.4; enzyme PLP-loaded; not PEGylated
T1 sequence (H1YAV1 1-429): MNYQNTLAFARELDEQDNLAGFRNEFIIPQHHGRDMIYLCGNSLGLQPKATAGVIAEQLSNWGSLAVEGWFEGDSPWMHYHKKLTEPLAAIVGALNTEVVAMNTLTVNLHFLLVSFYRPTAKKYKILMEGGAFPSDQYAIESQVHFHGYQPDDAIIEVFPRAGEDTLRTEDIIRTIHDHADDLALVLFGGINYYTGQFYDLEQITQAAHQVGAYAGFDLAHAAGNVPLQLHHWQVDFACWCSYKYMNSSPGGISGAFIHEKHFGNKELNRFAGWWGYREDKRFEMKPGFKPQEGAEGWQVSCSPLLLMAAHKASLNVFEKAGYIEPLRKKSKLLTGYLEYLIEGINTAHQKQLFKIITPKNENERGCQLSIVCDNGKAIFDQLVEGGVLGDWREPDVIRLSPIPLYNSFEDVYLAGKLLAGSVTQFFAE

[2] = molecular target: T2, Pf-KYNase (Pseudomonas fluorescens, UniProt P83788); experiment: as above; assay type: biochemical; settings: DPBS pH 7.4; enzyme PLP-loaded; not PEGylated
T2 sequence (P83788 1-416): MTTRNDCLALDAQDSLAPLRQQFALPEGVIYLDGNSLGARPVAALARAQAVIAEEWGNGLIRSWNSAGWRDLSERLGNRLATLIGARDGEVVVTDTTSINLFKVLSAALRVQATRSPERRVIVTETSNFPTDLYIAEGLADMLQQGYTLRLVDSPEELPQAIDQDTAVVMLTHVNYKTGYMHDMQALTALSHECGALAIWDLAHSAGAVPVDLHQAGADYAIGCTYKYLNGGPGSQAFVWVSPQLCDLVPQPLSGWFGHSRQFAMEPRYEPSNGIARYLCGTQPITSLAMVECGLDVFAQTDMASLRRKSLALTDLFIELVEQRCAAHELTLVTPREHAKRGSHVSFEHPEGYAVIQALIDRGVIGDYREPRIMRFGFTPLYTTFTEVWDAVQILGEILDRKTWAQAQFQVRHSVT

Nc1ccccc1C(=O)C[C@H](N)C(=O)O [kynurenine]
KM [1]: kinetic parameters for the kynureninase enzymes against both kynurenine (Kyn, Sigma) | KM [2]: kinetic parameters for the kynureninase enzymes against both kynurenine (Kyn, Sigma)
